Measurements: the OligoGym collection
Where “and” joins values, the source holds several entries; their conditions need not be identical. Equal entries are not always repeated. HELM strings list units from the 5' end as sugar, base in round brackets, then linkage (d deoxyribose, r ribose, m 2'-O-methyl, p phosphodiester). Methylation of C is not given here. [moe] = 2'-O-(2-methoxyethyl) (MOE); [cEt] = constrained ethyl (cEt); [sp] = phosphorothioate linkage

Biological target: HBV
Conditions: ASO

Substance | target mRNA inhibition (HepG2, 0.07 µM) | further results
RNA1{[moe](G)[sp].[cEt](A)[sp].d(A)[sp].d(C)[sp].d(C)[sp].d(A)[sp].d(C)[sp].d(T)[sp].d(G)[sp].d(A)[sp].d(A)[sp].d(C)[sp].[cEt](A)[sp].[moe](A)[sp].[cEt](A)[sp].[moe](T)}$$$$V2.0 | 49% and 43% | 
RNA1{[moe](C)[sp].[moe](T)[sp].[moe](G)[sp].d(A)[sp].d(A)[sp].d(C)[sp].d(A)[sp].d(A)[sp].d(A)[sp].d(T)[sp].d(G)[sp].d(G)[sp].d(C)[sp].[cEt](A)[sp].[cEt](C)[sp].[cEt](T)}$$$$V2.0 | 64% and 74% | 
RNA1{[moe](G)[sp].[moe](G)[sp].[moe](T)[sp].[moe](G)[sp].[moe](A)[sp].d(A)[sp].d(G)[sp].d(C)[sp].d(G)[sp].d(A)[sp].d(A)[sp].d(G)[sp].d(T)[sp].d(G)[sp].[moe](C)[sp].[moe](A)[sp].[moe](C)}$$$$V2.0 | 64% and 66% | 
RNA1{[moe](A)[sp].[moe](G)[sp].[moe](G)[sp].d(T)[sp].d(G)[sp].d(A)[sp].d(A)[sp].d(G)[sp].d(C)[sp].d(G)[sp].d(A)[sp].d(A)[sp].[moe](G)[sp].[moe](T)[sp].[moe](G)[sp].[moe](C)[sp].[moe](A)}$$$$V2.0 | 77% and 71% | 
RNA1{[moe](C)[sp].[moe](C)[sp].[moe](G)[sp].[moe](C)[sp].d(A)[sp].d(G)[sp].d(T)[sp].d(A)[sp].d(T)[sp].d(G)[sp].d(G)[sp].d(A)[sp].d(T)[sp].[moe](C)[sp].[moe](G)[sp].[moe](G)[sp].[moe](C)}$$$$V2.0 | 87% and 74% | target mRNA inhibition (HepG2, 0.0092593 µM): 0%; target mRNA inhibition (HepG2, 0.0277778 µM): 38%; target mRNA inhibition (HepG2, 0.0833333 µM): 69%; target mRNA inhibition (HepG2, 0.25 µM): 86%
RNA1{[moe](A)[sp].[moe](A)[sp].[moe](C)[sp].[moe](C)[sp].[moe](A)[sp].d(C)[sp].d(T)[sp].d(G)[sp].d(A)[sp].d(A)[sp].d(C)[sp].d(A)[sp].d(A)[sp].d(A)[sp].[moe](T)[sp].[moe](G)[sp].[moe](G)}$$$$V2.0 | 55% and 52% | 
RNA1{[moe](A)[sp].[moe](G)[sp].d(C)[sp].d(G)[sp].d(A)[sp].d(A)[sp].d(G)[sp].d(T)[sp].d(G)[sp].d(C)[sp].d(A)[sp].[moe](C)[sp].[moe](A)[sp].[moe](C)[sp].[moe](G)[sp].[moe](G)}$$$$V2.0 | 79% and 73% | target mRNA inhibition (HepG2, 0.0092593 µM): 0%; target mRNA inhibition (HepG2, 0.0277778 µM): 30%; target mRNA inhibition (HepG2, 0.0833333 µM): 72%; target mRNA inhibition (HepG2, 0.25 µM): 84%
RNA1{[moe](G)[sp].[moe](A)[sp].[moe](G)[sp].[cEt](G)[sp].d(T)[sp].d(G)[sp].d(A)[sp].d(A)[sp].d(G)[sp].d(C)[sp].d(G)[sp].d(A)[sp].d(A)[sp].[cEt](G)[sp].[moe](T)[sp].[moe](G)[sp].[moe](C)}$$$$V2.0 |  | target mRNA inhibition (HepG2, 0.009375 µM): 22%; target mRNA inhibition (HepG2, 0.01875 µM): 25%; target mRNA inhibition (HepG2, 0.0375 µM): 50%; target mRNA inhibition (HepG2, 0.075 µM): 69%; target mRNA inhibition (HepG2, 0.15 µM): 76%; target mRNA inhibition (HepG2, 0.3 µM): 88%
RNA1{[moe](C)[sp].[moe](G)[sp].[moe](G)[sp].[moe](G)[sp].d(C)[sp].d(A)[sp].d(A)[sp].d(C)[sp].d(A)[sp].d(T)[sp].d(A)[sp].d(C)[sp].d(C)[sp].[moe](T)[sp].[moe](T)[sp].[moe](G)}$$$$V2.0 | 48% and 65% | 
RNA1{[moe](A)[sp].[moe](C)[sp].[moe](G)[sp].[moe](T)[sp].[moe](G)[sp].d(C)[sp].d(A)[sp].d(G)[sp].d(A)[sp].d(G)[sp].d(G)[sp].d(T)[sp].d(G)[sp].d(A)[sp].[moe](A)[sp].[moe](G)[sp].[moe](C)}$$$$V2.0 | 73% and 52% | 
RNA1{[moe](A)[sp].[cEt](C)[sp].[cEt](A)[sp].d(G)[sp].d(C)[sp].d(T)[sp].d(T)[sp].d(G)[sp].d(G)[sp].d(A)[sp].d(G)[sp].d(G)[sp].d(C)[sp].[cEt](T)[sp].[cEt](T)[sp].[moe](G)}$$$$V2.0 | 10% and 0% | 
RNA1{[moe](T)[sp].[moe](G)[sp].[moe](C)[sp].d(A)[sp].d(G)[sp].d(A)[sp].d(G)[sp].d(G)[sp].d(T)[sp].d(G)[sp].d(A)[sp].d(A)[sp].[moe](G)[sp].[moe](C)[sp].[moe](G)[sp].[moe](A)[sp].[moe](A)}$$$$V2.0 | 75% and 63% | 
RNA1{[moe](T)[sp].[moe](G)[sp].[moe](A)[sp].d(A)[sp].d(G)[sp].d(C)[sp].d(G)[sp].d(A)[sp].d(A)[sp].d(G)[sp].d(T)[sp].d(G)[sp].[moe](C)[sp].[moe](A)[sp].[moe](C)[sp].[moe](A)}$$$$V2.0 | 76% and 66% | target mRNA inhibition (HepG2, 0.0092593 µM): 11%; target mRNA inhibition (HepG2, 0.0277778 µM): 22%; target mRNA inhibition (HepG2, 0.0833333 µM): 44%; target mRNA inhibition (HepG2, 0.25 µM): 64%
RNA1{[moe](T)[sp].[cEt](G)[sp].d(A)[sp].d(A)[sp].d(G)[sp].d(C)[sp].d(G)[sp].d(A)[sp].d(A)[sp].d(G)[sp].d(T)[sp].d(G)[sp].[cEt](C)[sp].[moe](A)[sp].[cEt](C)[sp].[moe](A)}$$$$V2.0 | 76% and 71% | 
RNA1{[moe](A)[sp].[cEt](G)[sp].[cEt](C)[sp].d(T)[sp].d(T)[sp].d(G)[sp].d(G)[sp].d(A)[sp].d(G)[sp].d(G)[sp].d(C)[sp].d(T)[sp].d(T)[sp].[cEt](G)[sp].[cEt](A)[sp].[moe](A)}$$$$V2.0 | 5% and 0% | 
RNA1{[moe](C)[sp].[cEt](G)[sp].d(C)[sp].d(A)[sp].d(G)[sp].d(T)[sp].d(A)[sp].d(T)[sp].d(G)[sp].d(G)[sp].d(A)[sp].d(T)[sp].[cEt](C)[sp].[moe](G)[sp].[cEt](G)[sp].[moe](C)}$$$$V2.0 | 83% and 92% | target mRNA inhibition (HepG2, 0.0092593 µM): 22%; target mRNA inhibition (HepG2, 0.0277778 µM): 49%; target mRNA inhibition (HepG2, 0.0833333 µM): 82%; target mRNA inhibition (HepG2, 0.25 µM): 91%
RNA1{[moe](C)[sp].[moe](G)[sp].d(C)[sp].d(A)[sp].d(G)[sp].d(T)[sp].d(A)[sp].d(T)[sp].d(G)[sp].d(G)[sp].d(A)[sp].[moe](T)[sp].[moe](C)[sp].[moe](G)[sp].[moe](G)[sp].[moe](C)}$$$$V2.0 | 76% and 71% | target mRNA inhibition (HepG2, 0.0092593 µM): 6%; target mRNA inhibition (HepG2, 0.0277778 µM): 31%; target mRNA inhibition (HepG2, 0.0833333 µM): 56%; target mRNA inhibition (HepG2, 0.25 µM): 80%
RNA1{[moe](A)[sp].[moe](C)[sp].[moe](T)[sp].[moe](G)[sp].[moe](G)[sp].d(A)[sp].d(G)[sp].d(C)[sp].d(C)[sp].d(A)[sp].d(C)[sp].d(C)[sp].d(A)[sp].d(G)[sp].[moe](C)[sp].[moe](A)[sp].[moe](G)}$$$$V2.0 | 46% and 39% | 
RNA1{[moe](A)[sp].[moe](G)[sp].[moe](G)[sp].d(T)[sp].d(G)[sp].d(A)[sp].d(A)[sp].d(G)[sp].d(C)[sp].d(G)[sp].d(A)[sp].d(A)[sp].[moe](G)[sp].[moe](T)[sp].[moe](G)[sp].[moe](C)}$$$$V2.0 | 68% and 58% | 
RNA1{[moe](G)[sp].[moe](A)[sp].[moe](G)[sp].d(A)[sp].d(A)[sp].d(G)[sp].d(T)[sp].d(C)[sp].d(C)[sp].d(A)[sp].d(C)[sp].d(C)[sp].[moe](A)[sp].[moe](C)[sp].[moe](G)[sp].[moe](A)[sp].[moe](G)}$$$$V2.0 | 31% and 28% | 
RNA1{[moe](A)[sp].[moe](C)[sp].[moe](C)[sp].[moe](A)[sp].[moe](C)[sp].[moe](T)[sp].d(G)[sp].d(A)[sp].d(A)[sp].d(C)[sp].d(A)[sp].d(A)[sp].d(A)[sp].d(T)[sp].d(G)[sp].[moe](G)[sp].[moe](C)}$$$$V2.0 | 59% and 42% | 
RNA1{[moe](G)[sp].[moe](C)[sp].[moe](A)[sp].d(C)[sp].d(T)[sp].d(A)[sp].d(G)[sp].d(T)[sp].d(A)[sp].d(A)[sp].d(A)[sp].d(C)[sp].[moe](T)[sp].[moe](G)[sp].[moe](A)[sp].[moe](G)}$$$$V2.0 | 59% | 
RNA1{[moe](G)[sp].[moe](T)[sp].[moe](T)[sp].[moe](C)[sp].d(C)[sp].d(G)[sp].d(C)[sp].d(A)[sp].d(G)[sp].d(T)[sp].d(A)[sp].d(T)[sp].d(G)[sp].[moe](G)[sp].[moe](A)[sp].[moe](T)}$$$$V2.0 | 57% and 45% | 
RNA1{[moe](T)[sp].[cEt](C)[sp].[cEt](C)[sp].d(A)[sp].d(C)[sp].d(C)[sp].d(A)[sp].d(C)[sp].d(G)[sp].d(A)[sp].d(G)[sp].d(T)[sp].d(C)[sp].[cEt](T)[sp].[cEt](A)[sp].[moe](G)}$$$$V2.0 | 54% and 44% | 
RNA1{[moe](T)[sp].[moe](T)[sp].[moe](C)[sp].[moe](C)[sp].d(G)[sp].d(C)[sp].d(A)[sp].d(G)[sp].d(T)[sp].d(A)[sp].d(T)[sp].d(G)[sp].d(G)[sp].[moe](A)[sp].[moe](T)[sp].[moe](C)[sp].[moe](G)}$$$$V2.0 | 56% and 38% | 
RNA1{[moe](G)[sp].[moe](T)[sp].[moe](G)[sp].[moe](A)[sp].d(A)[sp].d(G)[sp].d(C)[sp].d(G)[sp].d(A)[sp].d(A)[sp].d(G)[sp].d(T)[sp].d(G)[sp].[moe](C)[sp].[moe](A)[sp].[moe](C)[sp].[moe](A)}$$$$V2.0 | 72% and 62% | 
RNA1{[moe](A)[sp].[moe](C)[sp].[moe](G)[sp].d(T)[sp].d(G)[sp].d(C)[sp].d(A)[sp].d(G)[sp].d(A)[sp].d(G)[sp].d(G)[sp].d(T)[sp].[moe](G)[sp].[moe](A)[sp].[moe](A)[sp].[moe](G)}$$$$V2.0 | 51% and 35% | 
RNA1{[moe](C)[sp].[cEt](G)[sp].d(A)[sp].d(A)[sp].d(C)[sp].d(C)[sp].d(A)[sp].d(C)[sp].d(T)[sp].d(G)[sp].d(A)[sp].d(A)[sp].[cEt](C)[sp].[moe](A)[sp].[cEt](A)[sp].[moe](A)}$$$$V2.0 | 45% and 49% | 
RNA1{[moe](C)[sp].[moe](A)[sp].d(A)[sp].d(T)[sp].d(T)[sp].d(T)[sp].d(A)[sp].d(T)[sp].d(G)[sp].d(C)[sp].d(C)[sp].[moe](T)[sp].[moe](A)[sp].[moe](C)[sp].[moe](A)[sp].[moe](G)}$$$$V2.0 | 27% and 25% | 
